From patent US20040005652A1 (priority 2002, published 2004)

How the values were obtained:
B. cereus = conditions: cited from earlier work
B. anthrasis = conditions: cited from earlier work
B. thuringiensis = conditions: cited from earlier work
[1] = system: Bacillus thuringiensis ATCC 10792; type: cell-based
[2] = system: Bacillus cereus ATCC 14579; type: cell-based
[3] = system: Bacillus anthrasis AMES-RIID and ANR-1; type: cell-based

For `O=P(O)(Oc1c[nH]c2ccc(Br)c(Cl)c12)OC1C(O)C(O)C(O)C(O)C1O` (stereo not drawn) [5-bromo-4-chloro-3-indoxyl-myo-inositol-1-phosphate], the “colony colour, B. cereus” value (B. cereus) is listed as “turquoise colonies”, the “colony colour, B. anthrasis” value (B. anthrasis) is listed as “white colonies” and the “colony colour, B. thuringiensis” value (B. thuringiensis) is listed as “turquoise colonies”.
For Manganese chloride, the “Bacillus thuringiensis ATCC 10792 Colonial Morphologies 48 hours” value [1] was “turquoise colonies with a narrow rim”, the “Bacillus cereus ATCC 14579 Colonial Morphologies 48 hours” value [2] was “turquoise colonies with a narrow rim” and the “Bacillus anthrasis AMES-RIID and ANR-1 Colonial Morphologies 48 hours” value [3] was “cream color colony with a blue dot in the center”.
